These results are taken from patent publication US9750719B2, “Tetrazole compounds as calcium channel blockers” (CONVERGENCE PHARMACEUTICALS LIMITED, priority 2010, dated 2017).

The target in the test is T1, human Cav2.2 α (α1B) subunit, along with the human β3 and α2δ1 auxiliary subunits (Homo sapiens, UniProt Q00975).
T1 construct: expressed in transfected cells
Put plainly: hCav2.2 assay, IonWorks planar array electrophysiology in stable HEK293 cell line. In kind it is cell-based. The note with it: inhibition by 50% of current elicited by the 1st depolarising pulse; HEK293 cells; read-out: tonic pIC50 (converted). The protocol:
Compounds as defined in the first or second aspect may be tested for in vitro biological activity in the hCav2.2 assay in accordance with the following studies:
Stable cell lines expressing the human Cav2.2 α (α1B) subunit, along with the human β3 and α2δ1 auxiliary subunits were created following sequential transfection and selection of human embryonic kidney (HEK293) cells. HEK293 cells were cultured in Dulbecco's modified Eagles media/F12 media (Invitrogen, Cat #041-95750V) containing 10% fetal bovine serum, with added L-glutamine (2 mM; Invitrogen, Cat #25030-024) and non-essential amino acids (5%; Invitrogen, Cat #11140-035). Initially HEK293 cells were transfected with two plasmid vectors for expression of the hCav2.2 α subunit (pCIN5-hCav2.2 which carries a neomycin resistance marker) and the hCav β3 subunit (pCIH-hCav β3 which carries a hygromycin resistance marker). Clonal cell lines were isolated following selection in media supplemented with 0.4 mg ml^−1 Geneticin G418 (Invitrogen, Cat #10131-027) and 0.1 mg ml^−1 hygromycin (Invitrogen, Cat #10687-010). These clonal cell lines were assessed for Cav2.2 α/β3-mediated current expression using the IonWorks planar array electrophysiology technology (described below). A clonal line was identified that gave a reasonable level of functional Cav2.2 α/β3 current expression. This cell line was transfected with a plasmid vector for expression of the human α2δ1 subunit (pCIP-α2δ1 which carries a puromycin resistance marker) and clonal cell lines isolated following selection in media containing 0.62 μg ml^−1 puromycin (Sigma, Cat #P-7255), in addition to 0.4 mg ml^−1 Geneticin G418 and 0.1 mg ml^−1 hygromycin. Several cell lines were identified that gave robust levels of Cav2.2 α/β3/α2δ1-mediated current expression and one of these was selected for compound profiling. Expression of all three subunits within this cell line was continuously maintained by the inclusion of G418 (0.4 mg ml^−1), hygromycin (0.1 mg ml^−1) and puromycin (0.62 μg ml^−1). Cells were maintained at 37° C. in a humidified environment containing 5% CO2 in air. Cells were liberated from the T175 culture flasks for passage and harvesting using TrpLE (Invitrogen, Cat #12604-013).
Cells were grown to 30-60% confluence in T175 flasks and maintained at 30° C. for 24 hrs prior to recording. Cells were lifted by removing the growth media, washing with Ca^2+ free PBS (Invitrogen, Cat #14190-094) and incubating with 3 ml of warmed (37° C.) TrpLE (Invitrogen, Cat #12604-013) for 6 minutes. Lifted cells were suspended in 10 ml of extracellular buffer. Cell suspension was then placed into a 15 ml tube and centrifuged for 2 minutes at 700 rpm. After centrifugation, the supernatant was removed and the cell pellet was resuspended in 4.5 ml of extracellular solution.
Currents were recorded at room temperature (21-23° C.) using the IonWorks planar array electrophysiology technology (Molecular Devices Corp.). Stimulation protocols and data acquisition were carried out using a microcomputer (Dell Pentium 4). In order to determine planar electrode hole resistances (Rp), a 10 mV, 160 ms potential difference was applied across each hole. These measurements were performed before cell addition. After cell addition a seal test was performed prior to antibiotic (amphotericin) circulation to achieve intracellular access. Leak subtraction was conducted in all experiments by applying a 160 ms hyperpolarizing (10 mV) prepulse 200 ms before the test pulses to measure leak conductance. Test pulses stepping from the holding potential (VH) of −90 mV to +10 mV were applied for 20 ms and repeated 10 times at a frequency of 10 Hz. In all experiments, the test pulse protocol was performed in the absence (pre-read) and presence (post-read) of a compound. Pre- and post-reads were separated by a compound addition followed by a 3-3.5 min incubation. […]
(Patch clamp records ionic current or voltage across a cell membrane.)

SMILES strings stand for the structures. Structures can show the parent of a compound that is named as a salt. Some results are limits rather than exact numbers.

T1 sequence (Q00975 whole entry): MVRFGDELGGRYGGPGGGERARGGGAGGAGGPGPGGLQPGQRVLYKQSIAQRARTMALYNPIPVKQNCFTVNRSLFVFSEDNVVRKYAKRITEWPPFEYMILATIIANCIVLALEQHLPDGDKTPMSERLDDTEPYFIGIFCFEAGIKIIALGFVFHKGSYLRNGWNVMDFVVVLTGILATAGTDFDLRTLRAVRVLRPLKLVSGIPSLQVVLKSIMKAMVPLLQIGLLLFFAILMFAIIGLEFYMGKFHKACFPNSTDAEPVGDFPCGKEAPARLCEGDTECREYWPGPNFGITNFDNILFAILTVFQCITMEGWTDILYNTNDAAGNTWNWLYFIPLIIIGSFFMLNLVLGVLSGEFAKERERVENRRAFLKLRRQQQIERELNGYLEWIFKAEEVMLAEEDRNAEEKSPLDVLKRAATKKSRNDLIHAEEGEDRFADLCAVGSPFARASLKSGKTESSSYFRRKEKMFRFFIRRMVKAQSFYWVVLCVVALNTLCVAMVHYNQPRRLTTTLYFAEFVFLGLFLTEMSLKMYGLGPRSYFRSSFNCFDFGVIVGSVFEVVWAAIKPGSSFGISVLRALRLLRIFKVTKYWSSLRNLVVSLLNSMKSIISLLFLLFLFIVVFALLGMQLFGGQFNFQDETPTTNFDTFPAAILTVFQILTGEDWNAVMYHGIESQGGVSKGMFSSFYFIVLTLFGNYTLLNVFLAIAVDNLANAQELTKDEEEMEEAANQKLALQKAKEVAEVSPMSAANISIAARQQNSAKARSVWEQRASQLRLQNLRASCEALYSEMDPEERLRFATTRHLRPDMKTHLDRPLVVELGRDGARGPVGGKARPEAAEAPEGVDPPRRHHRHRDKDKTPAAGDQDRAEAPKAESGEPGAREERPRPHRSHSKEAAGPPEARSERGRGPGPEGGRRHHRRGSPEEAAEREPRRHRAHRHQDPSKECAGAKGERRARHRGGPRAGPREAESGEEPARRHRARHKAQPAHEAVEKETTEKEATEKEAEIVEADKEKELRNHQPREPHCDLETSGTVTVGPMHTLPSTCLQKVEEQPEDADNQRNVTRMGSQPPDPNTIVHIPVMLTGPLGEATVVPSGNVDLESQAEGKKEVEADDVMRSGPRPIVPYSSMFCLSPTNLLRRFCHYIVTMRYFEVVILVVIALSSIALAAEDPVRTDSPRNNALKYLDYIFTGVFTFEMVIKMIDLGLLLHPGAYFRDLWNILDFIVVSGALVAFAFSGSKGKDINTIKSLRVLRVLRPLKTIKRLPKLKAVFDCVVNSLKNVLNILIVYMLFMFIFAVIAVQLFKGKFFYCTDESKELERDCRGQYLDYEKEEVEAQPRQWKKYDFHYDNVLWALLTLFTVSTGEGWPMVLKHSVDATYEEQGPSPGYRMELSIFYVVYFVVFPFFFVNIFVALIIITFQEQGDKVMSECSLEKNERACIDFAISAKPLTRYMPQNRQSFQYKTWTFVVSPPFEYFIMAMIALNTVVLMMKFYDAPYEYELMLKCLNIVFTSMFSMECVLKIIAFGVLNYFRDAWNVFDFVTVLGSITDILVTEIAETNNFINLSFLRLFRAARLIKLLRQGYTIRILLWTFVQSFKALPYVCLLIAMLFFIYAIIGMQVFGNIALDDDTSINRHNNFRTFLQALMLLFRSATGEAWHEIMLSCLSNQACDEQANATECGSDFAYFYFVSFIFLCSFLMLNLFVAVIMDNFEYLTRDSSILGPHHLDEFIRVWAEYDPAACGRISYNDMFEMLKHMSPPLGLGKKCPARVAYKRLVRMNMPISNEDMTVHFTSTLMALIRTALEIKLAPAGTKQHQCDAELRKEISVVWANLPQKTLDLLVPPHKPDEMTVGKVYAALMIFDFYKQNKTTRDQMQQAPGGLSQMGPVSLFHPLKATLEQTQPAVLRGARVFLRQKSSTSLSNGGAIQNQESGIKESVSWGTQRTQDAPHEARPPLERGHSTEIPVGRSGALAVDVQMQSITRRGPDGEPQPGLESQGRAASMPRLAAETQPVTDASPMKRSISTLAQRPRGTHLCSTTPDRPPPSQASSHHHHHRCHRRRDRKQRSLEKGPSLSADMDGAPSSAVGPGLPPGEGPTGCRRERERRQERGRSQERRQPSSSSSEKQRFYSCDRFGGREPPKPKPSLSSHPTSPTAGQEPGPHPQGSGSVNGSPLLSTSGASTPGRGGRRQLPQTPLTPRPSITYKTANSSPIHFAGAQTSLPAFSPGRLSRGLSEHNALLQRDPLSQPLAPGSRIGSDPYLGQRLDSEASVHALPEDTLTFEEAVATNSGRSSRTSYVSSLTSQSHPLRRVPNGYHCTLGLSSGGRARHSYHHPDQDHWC
T1 sequence (P54284 whole entry partner): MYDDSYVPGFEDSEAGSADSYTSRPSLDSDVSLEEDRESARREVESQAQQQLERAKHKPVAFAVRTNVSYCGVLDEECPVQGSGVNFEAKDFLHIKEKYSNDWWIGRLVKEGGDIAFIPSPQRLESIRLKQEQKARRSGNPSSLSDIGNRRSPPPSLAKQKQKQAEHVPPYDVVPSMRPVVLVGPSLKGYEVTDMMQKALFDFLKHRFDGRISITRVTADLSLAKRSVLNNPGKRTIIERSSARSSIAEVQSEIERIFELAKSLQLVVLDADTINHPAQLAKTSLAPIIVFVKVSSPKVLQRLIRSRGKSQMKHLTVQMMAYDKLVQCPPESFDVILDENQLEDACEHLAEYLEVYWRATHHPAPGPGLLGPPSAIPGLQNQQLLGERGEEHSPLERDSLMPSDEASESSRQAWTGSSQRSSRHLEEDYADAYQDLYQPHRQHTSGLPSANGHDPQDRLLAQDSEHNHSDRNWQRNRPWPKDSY
T1 sequence (P54289 25-946 partner limits assumed): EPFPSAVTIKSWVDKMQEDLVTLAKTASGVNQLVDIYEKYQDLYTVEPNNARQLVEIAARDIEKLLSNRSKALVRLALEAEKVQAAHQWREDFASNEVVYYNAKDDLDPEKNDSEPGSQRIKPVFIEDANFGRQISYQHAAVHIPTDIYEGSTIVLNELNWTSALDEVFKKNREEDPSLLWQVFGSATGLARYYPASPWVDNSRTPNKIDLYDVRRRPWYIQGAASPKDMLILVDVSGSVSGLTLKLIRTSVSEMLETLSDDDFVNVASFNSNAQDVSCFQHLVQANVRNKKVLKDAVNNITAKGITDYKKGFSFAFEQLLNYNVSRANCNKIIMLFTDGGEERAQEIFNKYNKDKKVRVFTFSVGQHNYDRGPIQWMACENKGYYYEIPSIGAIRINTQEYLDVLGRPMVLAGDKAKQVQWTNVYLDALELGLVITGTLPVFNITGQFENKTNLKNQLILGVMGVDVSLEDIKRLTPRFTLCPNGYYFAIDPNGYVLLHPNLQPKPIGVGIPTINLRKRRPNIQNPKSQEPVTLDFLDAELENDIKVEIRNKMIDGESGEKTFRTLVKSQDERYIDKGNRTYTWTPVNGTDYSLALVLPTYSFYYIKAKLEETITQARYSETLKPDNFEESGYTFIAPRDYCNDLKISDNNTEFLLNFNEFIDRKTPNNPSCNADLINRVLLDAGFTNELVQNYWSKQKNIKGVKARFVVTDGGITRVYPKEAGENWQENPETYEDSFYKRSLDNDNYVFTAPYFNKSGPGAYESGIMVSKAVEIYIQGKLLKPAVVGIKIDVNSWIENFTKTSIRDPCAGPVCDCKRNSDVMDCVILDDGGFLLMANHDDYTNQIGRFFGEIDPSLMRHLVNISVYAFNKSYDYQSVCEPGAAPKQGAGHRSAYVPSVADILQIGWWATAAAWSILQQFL
T1 sequence (P54289 947-1103 partner limits assumed): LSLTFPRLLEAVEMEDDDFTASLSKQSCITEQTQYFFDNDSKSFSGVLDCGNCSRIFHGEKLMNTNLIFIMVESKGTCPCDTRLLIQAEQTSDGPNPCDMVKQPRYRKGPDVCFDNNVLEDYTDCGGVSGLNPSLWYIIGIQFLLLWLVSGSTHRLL

For the molecule `CN1CCN(Cc2nnnn2-c2cccc(C(F)(F)F)c2)CC1(C)C` [Compound 45, 1,2,2-Trimethyl-4-({1-[3-(trifluoromethyl)phenyl]-1H-tetrazol-5-yl}methyl)piperazine hydrochloride], the IC50 is at most 31.6 µM. Consider `CCS(=O)(=O)N1CCN(Cc2nnnn2-c2ccc(C(F)(F)F)cc2)CC1` [Compound 47, 1-(Ethylsulfonyl)-4-({1-[4-(trifluoromethyl)phenyl]-1H-tetrazol-5-yl}methyl)piperazine], for which the IC50 was at most 10 µM. With `CCS(=O)(=O)N1CCN(Cc2nnnn2-c2cccc(C(F)(F)F)c2)CC1` [Compound 48, 1-(Ethylsulfonyl)-4-({1-[3-(trifluoromethyl)phenyl]-1H-tetrazol-5-yl}methyl)piperazine] the figure was at most 3.16 µM; with `CCN1CCN(Cc2nnnn2-c2ccc(C(F)(F)F)cc2)[C@H](C)C1=O` [Compound 52, (3R)-1-Ethyl-3-methyl-4-({1-[4-(trifluoromethyl)phenyl]-1H-tetrazol-5-yl}methyl)-2-piperazinone], at most 31.6 µM; with `C[C@@H]1COCCN1Cc1nnnn1-c1ccc(OC(F)F)cc1` [Compound 54, (3R)-4-[(1-{4-[(Difluoromethyl)oxy]phenyl}-1H-tetrazol-5-yl)methyl]-3-methylmorpholine hydrochloride], at most 31.6 µM. Consider `C[C@@H]1CN(Cc2nnnn2-c2ccc(Br)cc2Cl)C[C@H](C)O1` [Compound 57, cis-4-{[1-(4-Bromo-2-chlorophenyl)-1H-tetrazol-5-yl]methyl}-2,6-dimethylmorpholine hydrochloride], for which the IC50 was at most 31.6 µM.

For `C[C@@H]1COC[C@H](C)N1Cc1nnnn1-c1cccc(C(F)(F)F)c1` [Compound 64, (cis)-3,5-dimethyl-4-({1-[3-(Trifluoromethyl)phenyl]-1H-tetrazol-5-yl}methyl)morpholine hydrochloride], the IC50 was at most 31.6 µM.

Consider `FC(F)(F)c1cccc(-n2nnnc2CNC2CCCCC2)c1` [Compound 65, N-({1-[3-(Trifluoromethyl)phenyl]-1H-tetrazol-5-yl}methyl)cyclohexanamine hydrochloride], for which the IC50 is at most 31.6 µM.

As for `FC(F)(F)c1ccc(-n2nnnc2CN2CCN3CCCC3C2)cc1` (stereo not drawn) [Compound 70, 2-({1-[4-(Trifluoromethyl)phenyl]-1H-tetrazol-5-yl}methyl)octahydropyrrolo[1,2-a]pyrazine di-hydrochloride], the IC50 was at most 31.6 µM.

On to `CS(=O)(=O)N1CCN(Cc2nnnn2-c2ccc(C(F)(F)F)cc2)CC1` [Compound 71, 1-(Methylsulfonyl)-4-({1-[4-(trifluoromethyl)phenyl]-1H-tetrazol-5-yl}methyl)piperazine], for which the IC50 was at most 3.16 µM. For the molecule `CS(=O)(=O)N1CCN(Cc2nnnn2-c2cccc(C(F)(F)F)c2)CC1` [Compound 72, 1-(Methylsulfonyl)-4-({1-[3-(trifluoromethyl)phenyl]-1H-tetrazol-5-yl}methyl)piperazine], the IC50 was at most 10 µM.

Take `N#Cc1ccc(-n2nnnc2CN2CCC[C@@H]2C(F)(F)F)cc1` [Compound 73, 4-(5-{[(2R)-2-(Trifluoromethyl)-1-pyrrolidinyl]methyl}-1H-tetrazol-1-yl)benzonitrile]: the IC50 is at most 31.6 µM. As for `O=C1CCC2CN(Cc3nnnn3-c3ccc(C(F)(F)F)cc3)CCN12` (stereo not drawn) [Compound 74, 2-({1-[4-(Trifluoromethyl)phenyl]-1H-tetrazol-5-yl}methyl)hexahydropyrrolo[1,2-a]pyrazin-6(2H)-one], the IC50 is at most 10 µM.

As to `FCC12CCCN1CCN(Cc1nnnn1-c1ccc(C(F)(F)F)cc1)C2` (stereo not drawn) [Compound 77, 8a-(Fluoromethyl)-2-({1-[4-(trifluoromethyl)phenyl]-1H-tetrazol-5-yl}methyl)octahydropyrrolo[1,2-a]pyrazine], the IC50 was at most 31.6 µM. As for `O=S1(=O)CCC2CN(Cc3nnnn3-c3ccc(C(F)(F)F)cc3)CCN21` (stereo not drawn) [Compound 78, 5-({1-[4-(Trifluoromethyl)phenyl]-1H-tetrazol-5-yl}methyl)hexahydro-2H-isothiazole[2,3-a]pyrazine 1,1-dioxide], the IC50 was at most 31.6 µM.
